A short description of series [1]: Microsomal metabolism. Particulars: rat liver microsomes. It counts as in vitro ADME. The procedure:
The study of the microsomal metabolism of the compounds was evaluated by placing 1 mg/ml rat liver microsome in a microcentrifuge tube, in the presence of a NADPH generator system (1 mM NADP^+, 1.5 mM MgCl2, 3.5 mM glucose-6-phosphate and 0.5 U/mL glucose-6-phosphate dehydrogenase) and phosphate buffer pH 7.4 in sufficient quantity for 250 μL. After 15 minutes of pre-incubation at 37°C in a water bath, the enzymatic reactions were started by adding 2 μL of a stock solution 1 mM from one of the prototypes (500 μL 20% DMSO 80% CH3CN), so that a final concentration of 5 μM was reached (0.2% DMSO, 0.8% acetonitrile).
Then, the samples were again incubated at 37°C under agitation for predetermined and fixed periods (0, 15, 30, 45 and 60 minutes). At the end of the incubation period 500 μL of cold methanol and 500 μL of cold acetonitrile containing 5 μM of methyl 1,1’biphenyl-4-carboxylate 5 μM (internal standard) were added to the wells to stop the reaction and the samples were homogenized and kept in an ice bath to accelerate protein precipitation. The mixture was centrifuged at 24500 x g for 15 minutes at 4°C (Universal centrifuge 320R Hettich®). Finally, the supernatant (1 mL) was filtrated and placed in vials to be analyzed by HPLC-PDA, Shimadzu—LC20AD, Kromasil C-18 column (4.6 mm x 250 mm, 5 μm), SPD M20A diode array detector, flow 1 mL/min, mobile phase acetonitrile: water 1:1 (v/v) for LASSBio-1491 and acetonitrile: water 60:40 (v/v) for LASSBio-1736, 20 minutes at 254 nm wavelength. Then, the microsomal half-life and clearance were calculated.
In general terms: Liver microsomes are a subcellular fraction often used to study metabolism.

In series [2] the test system is spleen cells. Nature of the series: Cytotoxicity against spleen cells (propidium iodide). Particulars: Mus musculus, 24 h. Here is the method:
To carry out the suspension preparation of spleen cells, BALB/c mice were euthanized, and an incision was made to remove the spleen. The spleens were macerated using the end of the plungers from a 1 mL syringe in a 70 μm strainer placed in a Petri dish containing RPMI medium. […] After incubation for 4 min at room temperature, the cells were washed with RPMI medium. Subsequently, samples from three animals were pooled and the cell suspension was passed through a 40 μm strainer. Cells were counted in a Neubauer chamber and splenocytes were plated at a concentration of 5 x 10^5 cells per well in a 96-well culture plate. […] Moreover, spleen cells were also cultured just with medium (free of compounds or vehicle) or with DMSO 0.1%. […] After, the propidium iodide incorporation was performed according to the instructions of the Propidium Iodide Kit (Sigma, Copenhagen, Denmark). The splenocytes were analyzed in a FACS Canto II flow cytometer. The data files were saved using FACS Diva software and data analysis was done using Flow Jo software. […] Data obtained from experiments were expressed as the mean ± standard error of the mean (S.E.M.) of spleen died cells and statistical differences between the treated and the vehicle groups of experiments were evaluated by ANOVA and Dunnett hoc tests.

The test system of series [3] is L. major promastigote LV39 substrain. Nature of the series: In vitro activity against promastigotes, LV39. It counts as cell-based. Particulars: Leishmania major. The procedure: L. major promastigotes LV39 (MRHO/SU/59/P) were obtained from João […] Preto Medical School- USP. L. major IOC/[…] promastigotes (MHOM/SU/1973/5-ASKH) were obtained from Leishmania collection of the Oswaldo Cruz Institute-Fiocruz. L. major promastigotes LV39 (MRHO/SU/59/P) and L. major IOC/[…] (MHOM/SU/1973/5-ASKH) were grown in a Schneider's medium (Sigma-Aldrich, St. […] The determination of the leishmanicidal activity of LASSBio-1491 against L. major promastigotes was carried out according to the methodology described by […] and colleagues (1996). […] After 48h of incubation in a Biochemical Oxygen Demand (B.O.D.) incubator, the promastigotes were counted using a hemocytometer. The results obtained were expressed as the mean ± S.E.M. of the number of promastigotes from triplicate cultures of representative assays, with the data analyzed by ANOVA and Dunnett hoc tests, considering a significance level of p < 0.05.

For series [4], the system named is L. major amasitigote 5-ASKH substrain. Nature of the series: In vitro activity against intramacrophage amastigotes, 5-ASKH. It counts as cell-based. The note with it: Leishmania major. The procedure:
(§1) Briefly, female BALB/c mice (6 to 8 weeks old) received 1 mL sterile of 3% sodium thioglycolate by intraperitoneal route (i.p.) and were euthanized after 4 days. The intraperitoneal lavage was collected from the peritoneal cavity of mice using sterile PBS and cells were counted in a hemocytometer. Peritoneal adherent cells (macrophages) were plated at a concentration of 2 x 10^5 cells per well in 24-well culture plates containing glass coverslips. Subsequently, L. major promastigotes (harvested after the third passage) were added at a concentration of 2 x 10^6 parasites per well, aiming to infect the macrophages. […] After 24 hours in an incubator at 37 °C and 5% CO2, the coverslips were washed with PBS and stained with Giemsa-May Grünwald. The number of amastigotes in 100 macrophages was determined by counting using optical microscope (100x objective). Furthermore, the cell culture supernatant was also collected for nitrite measurement using the Griess reaction, an indirect way of determining the concentration of nitric oxide in the supernatant of infected macrophages from the experimental groups. The results obtained were expressed as the mean ± S.E.M. of the number of amastigotes or nitrite concentration from duplicate cultures of representative assays, with the data analyzed by ANOVA and Dunnett hoc tests, considering a significance level of p < 0.05. In addition, the linear regression analysis from the Kc values at employed concentrations was used to determine the IC50.

Series [5] relates to L. major amastigote LV39 substrain. Put plainly: In vitro activity against intramacrophage amastigotes, LV39. The note with it: Leishmania major. It counts as cell-based. The procedure:
as §1

The test system of series [6] is peritoneal macrophages infected with L. major LV39. Nature of the series: Nitrite measurement (Griess reaction) in infected macrophages. The series is classed as cell-based, BALB/c mice. Particulars: BALB/c macrophages infected with L. major LV39. The procedure: as §1, with “In addition, the linear regression analysis from the Kc values at employed concentrations was used to determine the IC50.” left out
(In general: The Griess reaction detects nitrite, a stable product of nitric oxide.)

SMILES strings stand for the structures.

In general, half-life refers to how long it takes for the measured level to halve. High values mean slow decline, low ones rapid decline. One may read the microsomal CLint as the capacity of the preparation to metabolise the compound, expressed as a volume cleared per time. As usually defined, the IC50 is the concentration at which inhibition is half-maximal. A low value points to inhibition by little substance. Regarding `O=C(N/N=C/c1ccc([N+](=O)[O-])o1)NNC(=O)c1ccc(Cl)cc1` [LASSBio-1491], the half-life at 5 μM in series [1] (pH 7.4, with co-factor) was 2.68 h. The same compound registered a microsomal CLint at 5 μM in series [1] (pH 7.4, with co-factor, Volume x (0,693/t1/2)) of 1.07 µL/min/mg. Besides, in series [1] (with NADPH regenerating system), the “Metabolism rate with co-factor” value came to 25.46%. In series [1] (with co-factor), the “Elimination rate constant (k)” value turned out to be 0.0043. The compound also yielded a Clapp in series [1] (with co-factor, scaled to liver and rat weight) of 0.166 mL/min/kg. In addition, the IC50 in series [2] is more than 100 µM; in series [3] (promastigote LV39, 48 h), 7.7 ± 0.1 µM; in series [4] (Macrophage, amastigote 5-ASKH in macrophages, 24 h), 7.3 ± 0.6 µM; in series [5] (Macrophage, amastigote LV39 in macrophages, 24 h) it was 8.3 ± 0.3 µM. Also, the Emax is 68.3 ± 0.2% in series [3] (promastigote LV39, read-out: Maximum effect (% ± S.E.M.)); 67.5 ± 4.8% in series [4] (amastigote 5-ASKH, read-out: Maximum effect (% ± S.E.M.)); 60.2 ± 1.9% in series [5] (amastigote LV39, read-out: Maximum effect (% ± S.E.M.)). The “NO production (nitrite)” value in series [6] is “increased NO production”.

(Values after article PMC9170106, “Pre-clinical evaluation of LASSBio-1491: From in vitro pharmacokinetic study to in vivo leishmanicidal activity” (PLoS ONE, 2022).)
